Results from patent US6894037B2, “2-methylene-19-nor-20(S)-25-methyl-1α-hydroxycalciferol and its uses” (Wisconsin Alumni Research Foundation, priority 2003, dated 2005).
“Also recorded” adds a separate entry of the source.

Key:
HL-60 promyelocytes = test: Differentiation of HL-60 promyelocytes into monocytes (NBT reduction); assay type: cell-based; details: compared with 1,25-(OH)2D3; FIG. 2
Procedure: FIG. 2 is a graph illustrating the percent HL-60 cell differentiation as a function of the concentration of 2-methylene-19-nor-20(S)-25-methyl-1α-hydroxycalciferol or 1α,25-dihydroxyvitamin D3; and
The differentiation of HL-60 promyelocytes into monocytes was determined as described by Ostrem et al (J. Biol. Chem. 262, 14164-14171, 1987).
Induction of differentiation of HL-60 promyelocytes to monocytes by 1α,25-(OH)2D3 and the synthesized vitamin D analog was determined by measuring the percentage of cells reducing nitro blue tetrazolium (NBT). The experiment was repeated three times. The values ED50 can be derived from dose-response curves (FIG. 2) and represent the analog concentration capable of inducing 50% maturation. Differentiation activity ratio can then be determined from the ratio of the analog average ED50 to the ED50 for 1α,25-(OH)2D3.

CD-1 mice [1] = test: Bone calcium mobilization: serum calcium of mice fed 0.02% calcium diet after single oral dose; assay type: in vivo; details: for Bone Calcium Mobilization (serum calcium): single oral gavage, 0.02% calcium diet; for Bone calcium mobilization activity (bone resorption in vivo), in words: single oral dose, mice on 0.02% calcium diet
Excerpt: Goal: Determine whether or not TMM has bone calcium mobilization activity and how it compares to 1,25(OH)2D3 and 2-methylene-19-nor-20(S)-1α, 25-(OH)2D3 (hereinafter referred to as 2MD).
5-6 week old CD-1 mice were placed in the +D mouse room and fed chow diet. They were allowed to acclimate for 5 days before being switched to a purified diet described by Yang et al (Arch. Biochem. Biphys. 303, 98, 1993) containing 0.02% calcium and 0.3% P. Two days after the diet switch, dose administration began. Experimental Design:
All animals were weighed prior to dosing. The animals were divided into groups containing 5 animals/group. All animals were administered the drug by oral gavage one time. The dose was delivered in 100 μl Neobee oil/25 g mouse. […] The rise in serum calcium comes from bone mobilization only since no calcium is available from the intestine.
Mice fed a 0.02% calcium diet can only elevate their serum calcium levels by resorbing bone because no calcium is available through intestinal absorption. […] At lower doses, there was no significant elevation of serum calcium. […] Thus, the importance of the 25-hydroxyl for bone calcium mobilization is illustrated.

[2] = system: porcine intestinal vitamin D receptor; test: Competitive binding to the porcine intestinal vitamin D receptor, displacement of [3H]-1,25-(OH)2-D3; details: compared with the native hormone 1,25-(OH)2D3; FIG. 1
Procedure: FIG. 1 is a graph illustrating the relative activity of 2-methylene-19-nor-20(S)-25-methyl-1α-hydroxycalciferol or 1α,25-dihydroxyvitamin D3 to compete for binding of [3H]-1,25-(OH)2—D3 to the vitamin D pig intestinal nuclear receptor;
Competitive binding of the analog to the porcine intestinal receptor was carried out by the method described by Dame et al (Biochemistry 25, 4523-4534, 1986).
Competitive binding of 1α, 25-(OH)2D3 and the synthesized vitamin D analog to the porcine intestinal vitamin D receptor was carried out in triplicate on two different occasions. ED50 values can be derived from dose-response curves (FIG. 1) and represent the analog concentration required for 50% displacement of the radiolabeled 1α,25-(OH)2D3 from the receptor protein. Binding ratio can then be determined from the ratio of the analog average ED50 to the ED50 for 1α,25-(OH)2D3.

CD-1 mice [3] = test: Intestinal calcium transport: serum calcium of alendronate-treated mice on 0.47% calcium diet; assay type: in vivo; details: FIG. 3
Excerpt: FIG. 3 is a graph illustrating serum calcium versus time of mice injected with vehicle plus alendronate, with 1α,25-dihydroxyvitamin D3 plus alendronate, or with 2-methylene-19-nor-20(S)-25-methyl-1α-hydroxycalciferol (TMM) plus alendronate. Since alendronate blocks bone resorption the rise in serum calcium reflects only intestinal absorption.
In this measurement, alendronate is used to block bone resorption so the rise in serum calcium is because of increased calcium absorption from the intestine.
Goal: Determine whether or not TMM has intestinal calcium transport activity and how it compares to 1,25(OH)2D3.
5-6 week old CD-1 mice were placed in the +D mouse room and fed chow diet. They were allowed to acclimate for 7 days before being switched to a diet containing 0.47% calcium.
All animals were weighed prior to dosing and divided into groups containing 5 animals/treatment group. […] Once all time points were collected, the serum was diluted 1:50 in 0.1% Lanthum Chloride and analyzed by atomic absorption spectrometry for determination of total serum calcium levels. • Group 1: Neobee oil+Alendronate (1.75 mg/kg bw) • Group 2: 40.5 ug 1,25(OH)2D3/kg bw+Alendronate (1.75 mg/kg bw) • Group 3: 4.5 ug TMM/kg bw+Alendronate (1.75 mg/kg bw) • Group 4: 13.5 ug TMM/kg bw+Alendronate (1.75 mg/kg bw) • Group 5: 40.5 ug TMM/kg bw+Alendronate (1.75 mg/kg bw) Results: […]

[4] = previous work; cited from earlier work

SMILES	Bone Calcium Mobilization (serum calcium) (CD-1 mice [1]; 0.5 μg/kg, 0 hr (predose)) [mg/dL]	Bone Calcium Mobilization (serum calcium) (CD-1 mice [1]; 0.5 μg/kg, 24 hr) [mg/dL]	Bone Calcium Mobilization (serum calcium) (CD-1 mice [1]; 0.5 μg/kg, 48 hr) [mg/dL]	Bone Calcium Mobilization (serum calcium) (CD-1 mice [1]; 0.5 μg/kg, 72 hr) [mg/dL]	Bone Calcium Mobilization (serum calcium) (CD-1 mice [1]; 1.5 μg/kg, 0 hr (predose)) [mg/dL]	Bone Calcium Mobilization (serum calcium) (CD-1 mice [1]; 1.5 μg/kg, 24 hr) [mg/dL]	Bone Calcium Mobilization (serum calcium) (CD-1 mice [1]; 1.5 μg/kg, 48 hr) [mg/dL]	Bone Calcium Mobilization (serum calcium) (CD-1 mice [1]; 1.5 μg/kg, 72 hr) [mg/dL]	Bone Calcium Mobilization (serum calcium) (CD-1 mice [1]; 4.5 μg/kg, 0 hr (predose)) [mg/dL]	Bone Calcium Mobilization (serum calcium) (CD-1 mice [1]; 4.5 μg/kg, 24 hr) [mg/dL]	Bone Calcium Mobilization (serum calcium) (CD-1 mice [1]; 4.5 μg/kg, 48 hr) [mg/dL]	Bone Calcium Mobilization (serum calcium) (CD-1 mice [1]; 4.5 μg/kg, 72 hr) [mg/dL]	Bone Calcium Mobilization (serum calcium) (CD-1 mice [1]; 13.5 μg/kg, 0 hr (predose)) [mg/dL]	Bone Calcium Mobilization (serum calcium) (CD-1 mice [1]; 13.5 μg/kg, 24 hr) [mg/dL]	Bone Calcium Mobilization (serum calcium) (CD-1 mice [1]; 13.5 μg/kg, 48 hr) [mg/dL]	Bone Calcium Mobilization (serum calcium) (CD-1 mice [1]; 13.5 μg/kg, 72 hr) [mg/dL]	Bone calcium mobilization activity (bone resorption in vivo), in words (CD-1 mice [1]; Table 1)	also measured
C=C1[C@H](O)CC(=C/C=C2\CCC[C@]3(C)[C@@H]([C@@H](C)CCCC(C)(C)C)CC[C@@H]23)C[C@H]1O [TMM, 2-methylene-19-nor-20(S)-25-methyl-1α-hydroxycalciferol]	8.7 ± 0.2	8.8 ± 0.1	8.7 ± 0.1	8.7 ± 0.1	8.7 ± 0.2	8.7 ± 0.2	8.6 ± 0.1	8.9 ± 0.2	8.5 ± 0.3	9.0 ± 0.1	8.9 ± 0.1	8.8 ± 0.2	8.8 ± 0.1	9.7 ± 0.2	9.9 ± 0.3	9.5 ± 0.3	only at the highest dose caused bone resorption in vivo; also recorded: very little bone calcium mobilization activity	HL-60 differentiation activity relative to 1,25-(OH)2D3 (HL-60 promyelocytes): essentially equal to that of 1,25-(OH)2D3; Activity in raising serum calcium (bone calcium mobilization) relative to 1,25-(OH)2D3 (CD-1 mice [1]; compared with 1,25-(OH)2D3, Table 1): approximately equal to 1,25-(OH)2D3; also recorded: below that of the native hormone; Activity in raising serum calcium (bone calcium mobilization) relative to 2MD (CD-1 mice [1]; compared with 2MD, Table 1): one-tenth as active as 2MD; also recorded: fell far below; Binding to the vitamin D receptor relative to 1,25-(OH)2D3 [2]: one-tenth as well; Intestinal calcium transport activity, in words (CD-1 mice [3]): more intestinal calcium transport activity than does 1,25(OH)2D3; also recorded: very strong effect on intestinal calcium absorption
C=C1/C(=C\C=C2/CCC[C@]3(C)[C@@H]([C@H](C)CCCC(C)(C)O)CC[C@@H]23)C[C@@H](O)C[C@@H]1O [1α,25(OH)2D3, 1α,25-dihydroxyvitamin D3]	–	–	–	–	–	–	–	–	–	–	–	–	–	–	–	–	effective at 50 μg/kg bw and 450 μg/kg bw	Bone Calcium Mobilization (serum calcium) (CD-1 mice [1]; 50 μg/kg, 0 hr (predose)): 8.8 ± 0.2 mg/dL; Bone Calcium Mobilization (serum calcium) (CD-1 mice [1]; 50 μg/kg, 24 hr): 10.9 ± 0.1 mg/dL; Bone Calcium Mobilization (serum calcium) (CD-1 mice [1]; 50 μg/kg, 48 hr): 9.6 ± 0.3 mg/dL; Bone Calcium Mobilization (serum calcium) (CD-1 mice [1]; 50 μg/kg, 72 hr): 9.1 ± 0.2 mg/dL; Bone Calcium Mobilization (serum calcium) (CD-1 mice [1]; 450 μg/kg, 0 hr (predose)): 8.8 ± 0.2 mg/dL; Bone Calcium Mobilization (serum calcium) (CD-1 mice [1]; 450 μg/kg, 24 hr): 11.6 ± 0.3 mg/dL; Bone Calcium Mobilization (serum calcium) (CD-1 mice [1]; 450 μg/kg, 48 hr): 11.4 ± 0.7 mg/dL; Bone Calcium Mobilization (serum calcium) (CD-1 mice [1]; 450 μg/kg, 72 hr): 9.4 ± 0.4 mg/dL; Intestinal calcium absorption activity relative to 2-methylene-19-nor-20(S)-1α, 25-(OH)2D3 [4]: about the same activity
C=C1[C@H](O)CC(=C/C=C2\CCC[C@]3(C)[C@@H]([C@@H](C)CCCC(C)(C)O)CC[C@@H]23)C[C@H]1O [2MD, 2-methylene-19-nor-20(S)-1α, 25-(OH)2D3]	8.8 ± 0.3	9.4 ± 0.2	9.2 ± 0.2	8.9 ± 0.2	8.8 ± 0.2	10.1 ± 0.1	10.5 ± 0.2	10.1 ± 0.2	8.8 ± 0.0	10.9 ± 0.2	12.6 ± 0.5	12.0 ± 0.4	8.6 ± 0.1	11.5 ± 0.4	10.8 ± 0.5	13.4 ± 0.6	–	–
